ChEMBL document CHEMBL5252619, “Sadopeptins A and B, Sulfoxide- and Piperidone-Containing Cyclic Heptapeptides with Proteasome Inhibitory Activity from a Streptomyces sp” (J Nat Prod, 2023)
Activity calls are given as the source filed them. The rule behind the calls is not given here.

Legend:
[1] = system: Proteasome; experiment: Inhibition of human proteasome trypsin-like activity using Boc-LRR-AMC as substrate measured for 30 mins in presence of MG132 by fluorescence based assay; type: subcellular; conditions: dose 10-50 µM
[2] = system: Proteasome; experiment: Inhibition of proteasome caspase-like activity in human A549 cells assessed as increase in caspase-3 level at 25 to 100 uM measured for 12 hrs in presence of MG132; type: subcellular; conditions: dose 25-100 µM
[3] = system: Proteasome; experiment: Inhibition of proteasome caspase-like activity in human A549 cells assessed as cleaved PARP level at 25 to 100 uM measured for 12 hrs in presence of MG132; conditions: dose 25-100 µM
[4] = system: Proteasome; experiment: Inhibition of proteasome caspase-like activity in human A549 cells at 25 uM using ZLLE-AMC as fluorogenic substrate preincubated for 15 mins followed by substrate addition and measured after 6 mins by fluorometer analysis; type: subcellular
[5] = system: A549; experiment: Cytotoxicity against human A549 cells assessed as reduction in cell viability up to 200 uM measured for 9 hrs by WST-8 assay; type: functional, cell-based
[6] = system: Proteasome; experiment: Inhibition of proteasome caspase-like activity in human A549 cells assessed as LC3 lipidation at 25 to 100 uM measured for 12 hrs in presence of MG132; conditions: dose 25-100 µM
[7] = system: Proteasome; experiment: Inhibition of human proteasome chymotrypsin-like activity using suc-LLVY-AMC as fluorogenic substrate measured for 30 mins in presence of MG132 by fluorescence based assay; type: subcellular; conditions: dose 10-50 µM

inhibition [1] | inhibition [2] | inhibition [3] | inhibition [4] | inhibition [6] | inhibition [7] | SMILES | Activity [5]
Dose-Dependent Effect | Active | Active | Active | Active | Dose-Dependent Effect | CC(C)CC(=O)N[C@@H](CCCNC(N)=O)C(=O)N[C@@H]1C(=O)N[C@@H](CC[S+](C)[O-])C(=O)N[C@H]2CC[C@@H](O)N(C2=O)[C@@H](Cc2ccccc2)C(=O)N(C)[C@@H](Cc2ccc(O)cc2)C(=O)N[C@@H](C(C)C)C(=O)O[C@@H]1C (some centres undefined) | Active
Dose-Dependent Effect | Active | Active | Active | Active | Dose-Dependent Effect | CCCC(=O)N[C@@H](CCCNC(N)=O)C(=O)N[C@@H]1C(=O)N[C@@H](CC[S+](C)[O-])C(=O)N[C@H]2CC[C@@H](O)N(C2=O)[C@@H](Cc2ccccc2)C(=O)N(C)[C@@H](Cc2ccc(O)cc2)C(=O)N[C@@H](C(C)C)C(=O)O[C@@H]1C (some centres undefined) | Active
